27 molecules from patent publication US12180226B2, “Spirotricycle RIPK1 inhibitors and methods of uses thereof” (Merck Sharp & Dohme LLC, priority 2021, dated 2024) can be followed below.

Where a name gives a salt, the structure may show the parent alone.

The assay deals with RIPK1 (recombinant GST-RIPK1 kinase domain, residues 1-327) (Homo sapiens (Human), UniProt Q13546). Kind of assay: RIPK1-ADP-Glo Enzymatic Assay. The assay is classed as biochemical. The conditions noted are these: ADP-Glo; 25 nM GST-RIPK1, 300 μM ATP; assay lower limit ~25 nM; read-out: RIPK1 V0 Ec50. The essentials: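 Luminescent ADP-Glo readout of ATP-to-ADP conversion. Conditions: 25 nM enzyme, 300 μM ATP, 3 μM dephospho-MBP, pH 7.3 HEPES buffer with 20 mM MgCl2; 30 min compound pre-incubation, 150 min reaction. EC50 via four-parameter sigmoidal regression; assay floor ~25 nM.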
(In general: ADP-Glo turns the ADP formed in a reaction into a luminescent signal.)

RIPK1 (recombinant GST-RIPK1 kinase domain, residues 1-327), sequence (Q13546 1-327): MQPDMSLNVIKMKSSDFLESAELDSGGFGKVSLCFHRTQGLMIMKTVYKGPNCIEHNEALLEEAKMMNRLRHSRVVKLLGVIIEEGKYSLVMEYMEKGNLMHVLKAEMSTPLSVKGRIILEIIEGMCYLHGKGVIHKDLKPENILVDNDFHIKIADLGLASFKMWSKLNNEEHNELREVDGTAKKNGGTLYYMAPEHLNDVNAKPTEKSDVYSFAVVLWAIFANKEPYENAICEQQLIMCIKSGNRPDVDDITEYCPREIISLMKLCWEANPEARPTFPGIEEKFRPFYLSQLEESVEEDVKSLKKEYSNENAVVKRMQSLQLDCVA

As a reminder, the EC50 is the concentration that produces a half-maximal response. `Cc1ccc(F)c(C(=O)N2CCC3(CC2)O[C@@H]2CC[C@@H](c4cccc(F)c4)N2C3=O)c1` [Example 6.133, (5′S,7a′R)-1-(2-fluoro-5-methylbenzene-1-carbonyl)-5′-(3-fluoro-phenyl)tetrahydro-3′H-spiro[piperidine-4,2′-pyrrolo[2,1-b] [1,3]oxazol]-3′-one]: the EC50 is less than 25 nM.
Consider `Cc1cnn(-c2cc(N3CCC4(CC3)O[C@@H]3CC[C@@H](c5ccccc5)N3C4=O)ncn2)c1` [Example 4.26, (5′S,7a′R)-1-[6-(4-methyl-1H-pyrazol-1-yl)pyrimidin-4-yl]-5′-phenyltetrahydro-3′H-spiro[piperidine-4,2′-pyrrolo[2,1-b] [1,3]oxazol]-3′-one], for which the EC50 was determined as 24.6 nM.
Under `O=C(c1cccc2ccnn12)N1CCC2(CC1)O[C@@H]1CC[C@@H](c3cc(F)cc(F)c3)N1C2=O` [Example 6.27, (5′S,7a′R)-5′-(3,5-difluorophenyl)-1-(pyrazolo[1,5-a]pyridine-7-carbonyl) tetrahydro-3′H-spiro [piperidine-4,2′-pyrrolo[2,1-b][1,3]oxazol]-3′-one] stands 47.6 nM.
As to `O=C(c1cccc(F)c1F)N1CCC2(CC1)O[C@@H]1CC[C@@H](c3cc(F)cc(F)c3)N1C2=O` [Example 5.3, (5′S,7a′R)-1-(2,3-difluoro-benzene-1-carbonyl)-5′-(3,5-difluorophenyl)tetra-hydro3′H-spiro[piperidine-4,2′-pyrrolo[2,1-b][1,3]oxazol]-3′-one], the EC50 is less than 25 nM.
As for `Cc1cc(N2CCC3(CC2)O[C@@H]2CC[C@@H](c4ccccc4)N2C3=O)cc(C#N)n1` [Example 4.16, 6-methyl-4-[(5′S,7a′R)-3′-oxo-5′-phenyltetrahydro-1H,3′H-spiro[piperidine-4,2′-pyrrolo[2,1-b] [1,3]oxazol]-1-yl]pyridine-2-carbonitrile], the EC50 is less than 25 nM.
`CC1CN(c2ccnc3ccnn23)CCC12O[C@@H]1CC[C@@H](c3ccccc3)N1C2=O` (stereo partly drawn) [Example 4.235, (4R,5′S,7a′R)-3-methyl-5′-phenyl-1-(pyrazolo[1,5-a]pyrimidin-7-yl)tetrahydro-3′H-spiro[piperidine-4,2′-pyrrolo[2,1-b] [1,3]oxazol]-3′-one]: the concentration for a half-maximal effect (EC50) was less than 25 nM.
With `O=C(c1cnc(Cl)cn1)N1CCC2(CC1)O[C@@H]1CC[C@@H](c3cc(F)cc(F)c3)N1C2=O` [Example 6.86, (5′S,7a′R)-1-(5-chloro-pyrazine-2-carbonyl)-5′-(3,5-difluorophen-yl)tetrahydro-3′H-spiro[piperidine-4,2′-pyrrolo[2,1-b][1,3]-oxazol]-3′-one], the EC50 is 86 nM.
Under `COCOc1cc(-c2ccc(N3CCC4(CC3)O[C@@H]3CC[C@@H](c5ccccc5)N3C4=O)nc2)on1` [Example 4.164, (5′S,7a′R)-1-{5-[3-(methoxymethoxy)-1,2-oxazol-5-yl]pyridin-2-yl}-5′-phenyltetrahydro-3′H-spiro[piperidine-4,2′-pyrrolo[2,1-b] [1,3]oxazol]-3′-one] stands 28.8 nM; under `O=C1N2[C@@H](CC[C@H]2c2ccccc2)OC12CCN(c1ccc(F)c3ncnn13)CC2` [Example 4.223, (5′S,7a′R)-1-(8-fluoro[1,2,4]triazolo[1,5-a]pyridin-5-yl)-5′-phenyltetrahydro-3′H-spiro[piperidine-4,2′-pyrrolo[2,1-b] [1,3]oxazol]-3′-one], less than 25 nM.
Under `N#Cc1cccnc1C(=O)N1CCC2(CC1)O[C@@H]1CC[C@@H](c3cc(F)cc(F)c3)N1C2=O` [Example 6.103, 2-[(5′S,7a′R)-5′-(3,5-difluorophenyl)-3 oxotetrahydro-1H,3′H-spiro[piperidine-4,2′-pyrrolo[2,1-b][1,3]-oxazole]-1-carbonyl]-pyridine-3-carbonitrile] stands 934 nM.
For the molecule `O=C(c1ccccc1OC(F)F)N1CCC2(CC1)O[C@@H]1CC[C@@H](c3cc(F)cc(F)c3)N1C2=O` [Example 6.61, (5′S,7a′R)-1-[2-(difluoromethoxy)-benzene-1-carbonyl]-5′-(3,5-difluorophen-yl)tetrahydro-3′H-spiro[piperidine-4,2′-pyrrolo[2,1-b][1,3]-oxazol]-3′-one], the EC50 was found to be 261 nM.
Regarding `O=C1N2[C@@H](CC[C@H]2c2ccccc2)OC12CCN(c1ncc(F)cc1C(F)F)CC2` [Example 11.25, (5′S,7a′R)-1-[3-(difluoromethyl)-5-fluoropyridin-2-yl]-5′-phenyltetrahydro-3′H-spiro[piperidine-4,2′-pyrrolo[2,1-b][1,3]oxazol]-3′-one], the EC50 was found to be 61.1 nM.
Under `O=C(c1nc2cnccc2s1)N1CCC2(CC1)O[C@@H]1CC[C@@H](c3cc(F)cc(F)c3)N1C2=O` [Example 6.44, (5′S,7a′R)-5′-(3,5-difluorophenyl)-1-([1,3]thiazolo[4,5-c]pyridine-2-carbonyl) tetrahydro-3′H-spiro [piperidine-4,2′-pyrrolo[2,1-b][1,3]oxazol]-3′-one] stands 67.1 nM; under `O=C1N2[C@@H](CC[C@H]2c2ccccc2)OC12CCN(c1cc(F)c(O)cn1)CC2` [Example 4.209, (5′S,7a′R)-1-(4-fluoro-5-hydroxypyridin-2-yl)-5′-phenyltetrahydro-3′H-spiro[piperidine-4,2′-pyrrolo[2,1-b] [1,3]oxazol]-3′-one], 166 nM.
Take `Nc1nnc(N2CCC3(CC2)O[C@@H]2CC[C@@H](c4ccccc4)N2C3=O)s1` [Example 11.23, (5′S,7a′R)-1-(5-amino-1,3,4-thiadiazol-2-yl)-5′-phenyltetrahydro-3′H-spiro[piperidine-4,2′-pyrrolo[2,1-b][1,3]oxazol]-3′-one]: the EC50 is 306 nM.
Take `COc1cncc(C(=O)N2CCC3(CC2)O[C@@H]2CC[C@@H](c4cc(F)cc(F)c4)N2C3=O)n1` [Example 6.41, (5′S,7a′R)-5′-(3,5-difluorophenyl)-1-(6-methoxypyrazine-2-carbonyl)tetrahydro-3′H-spiro[piperidine-4,2′-pyrrolo[2,1-b] [1,3]-oxazol]-3′-one]: the EC50 turned out to be 131 nM.
In the case of `N#Cc1ccc(N2CCC3(CC2)O[C@@H]2CC[C@@H](c4ccccc4)N2C3=O)n2ncc(Br)c12` [Example 4.183, 3-bromo-7-[(5′S,7a′R)-3′-oxo-5′-phenyltetrahydro-1H,3′H-spiro[piperidine-4,2′-pyrrolo[2,1-b] [1,3]oxazol]-1-yl]pyrazolo[1,5-a] pyridine-4-carbonitrile], the EC50 is less than 25 nM.
As to `O=C(c1ccccc1)N1CCC2(CC1)SC1CC[C@@H](c3cc(F)cc(F)c3)N1C2=O` (stereo partly drawn) [Example 1.22, (5′S)-1-benzoyl-5′-(3,5-difluorophenyl)tetrahydro-3′H-spiro[piperidine-4,2′-pyrrolo[2,1-b]thiazol]-3′-one], the concentration for a half-maximal effect (EC50) was less than 25 nM.
For `O=C(c1ccc(C(F)F)nc1)N1CCC2(CC1)O[C@@H]1CC[C@@H](c3cc(F)cc(F)c3)N1C2=O` [Example 6.66, (5′S,7a′R)-1-[6-(difluoromethyl)pyr-idine-3-carbonyl]-5′-(3,5-difluorophenyl)-tetrahydro-3′H-spiro [piperidine-4,2′-pyrrolo[2,1-b][1,3]-oxazol]-3′-one], the EC50 is 311 nM.
Under `O=C(c1cc(F)ccc1Cl)N1CCC2(CC1)O[C@@H]1CC[C@@H](c3ccccc3F)N1C2=O` [Example 1.15, (5′S,7a′R)-1-(2-chloro-5-fluorobenzoyl)-5′-(2-fluorophenyl)tetrahydro-3′H-spiro[piperidine-4,2′-pyrrolo[2,1-b]oxazol]-3′-one] stands 33.4 nM; under `O=C(c1ccccc1)N1CCC2(CC1)O[C@@H]1CC[C@@H](c3cccc(F)c3F)N1C2=O` [Example 17.10, (5′S,7a′R)-1-benzoyl-5′-(2,3-difluorophenyl)tetrahydro-3′H-spiro[piperidine-4,2′-pyrrolo[2,1-b]oxazol]-3′-one], less than 25 nM.
For the molecule `Cc1nc(N2CCC3(CC2)O[C@@H]2CC[C@@H](c4ccccc4)N2C3=O)sc1C` [Example 11.32, (5′S,7a′R)-1-(4,5-dimethyl-1,3-thiazol-2-yl)-5′-phenyltetrahydro-3′H-spiro[piperidine-4,2′-pyrrolo[2,1-b][1,3]oxazol]-3′-one], the concentration giving a half-maximal response (EC50) amounted to 319 nM.
Turning to `Cc1nccc(C(=O)N2CCC3(CC2)O[C@@H]2CC[C@@H](c4cc(F)cc(F)c4)N2C3=O)n1` [Example 6.95], the EC50 came out at 245 nM.
Under `O=C1N2[C@@H](CC[C@H]2c2cc(F)cc(F)c2)OC12CCN(c1ccc(C3CCC3)c3ccnn13)CC2` [Example 18.1, (5′S,7a′R)-1-(4-Cyclobutylpyrazolo[1,5-a]pyridin-7-yl)-5′-(3,5-difluorophenyl)tetrahydro-3′H-spiro[piperidine-4,2′-pyrrolo[2,1-b]oxazol]-3′-one, TFA salt] stands 159 nM; under `O=C(c1cnon1)N1CCC2(CC1)O[C@@H]1CC[C@@H](c3cc(F)cc(F)c3)N1C2=O` [Example 5.46, (5′S,7a′R)-5′-(3,5-difluoro-phenyl)-1-(1,2,5-oxazole-3-carbonyl)tetrahydro-3′H-spiro[piperidine-4,2′-pyrrolo-[2,1-b]oxazol]-3′-one], 444 nM; under `O=C1N2[C@@H](CC[C@H]2c2ccccc2)OC12CCN(c1ncnc3c(I)cnn13)CC2` [Example 4.219, (5′S,7a′R)-1-(8-iodopyrazolo[1,5-a] [1,3,5]triazin-4-yl)-5′-phenyltetrahydro-3′H-spiro[piperidine-4,2′-pyrrolo[2,1-b] [1,3]oxazol]-3′-one], less than 25 nM.
Under `O=C(c1csnn1)N1CCC2(CC1)O[C@@H]1CC[C@@H](c3cc(F)cc(F)c3)N1C2=O` [Example 5.49, (5′S,7a′R)-5′-(3,5-difluoro-phenyl)-1-(1,2,3-thiadi-azole-4-carbonyl)tetra-hydro-3′H-spiro[piperidine-4,2′-pyrrolo[2,1-b]oxazol]-3′-one] stands 78.1 nM.
